Test results published in ChEMBL document CHEMBL5724914, “Linking interpersonal differences in gut microbiota composition and drug biotransformation activity” (2024).

Legend:
[1] = (§1) The drug is tested on Z-013 corresponding to rabbit gut metagenome with ENA study accession number: PRJEB37062 and ENA sample accession number: ERS12561813 for biotransformation under anaerobic condition. The drug concentrations were measured over 9 timepoints collected between 0 and 24 hours of incubation by liquid-chromatography-coupled mass spectrometry (LC–MS); conditions: 2 µM
[2] = human gut metagenome, 24 h, 2 µM
[3] = human gut metagenome, 24 h, 2 µM; remark: listed apart in the source
[4] = human gut metagenome, 24 h, 2 µM; remark: listed apart in the source
[5] = human gut metagenome, 24 h, 2 µM; remark: listed apart in the source
[6] = human gut metagenome, 24 h, 2 µM; remark: listed apart in the source
[7] = human gut metagenome, 24 h, 2 µM; remark: listed apart in the source
[8] = human gut metagenome, 24 h, 2 µM; remark: listed apart in the source
[9] = as §1, with “Z-007” for “Z-013”, “rat” for “rabbit”, “ERS12561807” for “ERS12561813”; conditions: 2 µM
[10] = as §1, with “Z-016” for “Z-013”, “mouse” for “rabbit”, “ERS12561815” for “ERS12561813”; conditions: 2 µM
[11] = as §1, with “Z-026” for “Z-013”, “to” for “to rabbit gut”, “ERS12561825” for “ERS12561813”; conditions: 2 µM
[12] = human gut metagenome, 24 h, 2 µM; remark: listed apart in the source
[13] = as §1, with “Z-023” for “Z-013”, “to” for “to rabbit gut”, “ERS12561822” for “ERS12561813”; conditions: 2 µM
[14] = as §1, with “Z-001” for “Z-013”, “mouse” for “rabbit”, “ERS12561801” for “ERS12561813”; conditions: 2 µM
[15] = as §1, with “Z-022” for “Z-013”, “mouse” for “rabbit”, “ERS12561821” for “ERS12561813”; conditions: 2 µM
[16] = as §1, with “Z-021” for “Z-013”, “to” for “to rabbit gut”, “ERS12561820” for “ERS12561813”; conditions: 2 µM
[17] = as §1, with “Z-028” for “Z-013”, “mouse” for “rabbit”, “ERS12561827” for “ERS12561813”; conditions: 2 µM
[18] = as §1, with “WLS-098” for “Z-013”, “human” for “rabbit”, “ERS12561754” for “ERS12561813”; conditions: 2 µM
[19] = as §1, with “WLS-007” for “Z-013”, “human” for “rabbit”, “ERS12561742” for “ERS12561813”; conditions: 2 µM
[20] = human gut metagenome, 24 h, 2 µM; remark: listed apart in the source

Measured: Bacterial Biotransformation
Further: call rule not given here.

CCCc1nc2c(C)cc(-c3nc4ccccc4n3C)cc2n1Cc1ccc(-c2ccccc2C(=O)O)cc1
Compound metabolized: all assays above

CCCCC(=O)N(Cc1ccc(-c2ccccc2-c2nnn[nH]2)cc1)[C@H](C(=O)O)C(C)C
Compound NOT metabolized: [1] | [9] | [10] | [11] | [13] | [14] | [15] | [17]
Compound metabolized: all other assays above

Cc1cc2c(cc1S(N)(=O)=O)S(=O)(=O)CCC2
Compound NOT metabolized: all assays above

CN1CCc2c(c3ccccc3n2Cc2ccccc2)C1.CN1CCc2c(c3ccccc3n2Cc2ccccc2)C1.O=S(=O)(O)c1cccc2c(S(=O)(=O)O)cccc12
Compound metabolized: [2] | [3] | [4]
Compound NOT metabolized: all other assays above

CCC(COC(=O)c1cc(OC)c(OC)c(OC)c1)(c1ccccc1)N(C)C.O=C(O)/C=C\C(=O)O (stereo not given)
Compound metabolized: [4] | [13] | [15] | [16] | [17]
Compound NOT metabolized: all other assays above

COc1ccc(CCN(C)CCCC(C#N)(c2ccc(OC)c(OC)c2)C(C)C)cc1OC (stereo not given)
Compound metabolized: [2] | [3] | [4] | [8] | [12] | [13] | [17] | [18] | [19] | [20]
Compound NOT metabolized: all other assays above

CN1CC(=O)N2[C@H](c3ccc4c(c3)OCO4)c3[nH]c4ccccc4c3C[C@@H]2C1=O
Compound NOT metabolized: [1] | [9] | [11] | [14] | [17]
Compound metabolized: all other assays above

COc1cc2nc(N(C)CCCNC(=O)C3CCCO3)nc(N)c2cc1OC (stereo not given) [ALFUZOSIN]
Compound metabolized: [2] | [4] | [6] | [7] | [12] | [14] | [15] | [18] | [19] | [20]
Compound NOT metabolized: all other assays above
